Results taken from patent publication US20230085307A1, “PYRIDAZINONE COMPOUND AND HERBICIDE” (NISSAN CHEMICAL CORPORATION, priority 2019, published 2023).

Experiments:
[1] = test system: Japanese bulrush; experiment: Test Example 1: herbicidal activity, application before weed generation under submerged conditions (Table 16, symbol B); type: in vivo, Japanese bulrush (Schoenoplectus juncoides); details: 320 g/ha applied herbicide
How it was run: (§1)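 Alluvial soil was flooded to 4 cm depth, weed seeds were sown mixed and 2.5-leaf rice seedlings were transplanted. On sowing day, the compound's emulsion, diluted in water to a set dose, was applied to the water surface. Plants grew at 25–30 °C and were scored 0–5 after three weeks.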

[2] = test system: oval-leafed pondweed; experiment: Test Example 1: herbicidal activity, application before weed generation under submerged conditions (Table 16, symbol C); type: in vivo, oval-leafed pondweed (Monochoria vaginalis); details: 320 g/ha applied herbicide
How it was run: as §1

[3] = test system: oval-leafed pondweed; experiment: Test Example 2: herbicidal activity, application during weed generation under submerged conditions (Table 17, symbol C); type: in vivo, oval-leafed pondweed (Monochoria vaginalis); details: AAH 320 g/ha; application during weed generation, submerged conditions
How it was run: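 Wagner pot, alluvial soil, 4 cm flood; mixed sowing of all species; greenhouse 25° C.–30° C. Emulsifiable formulation, water-diluted to predetermined dose, applied to paddy water at 1–2 leaf stage. Effect rated at 3 wk using the earlier test's scoring criteria.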

[4] = test system: rice flat sedge; experiment: Test Example 3: herbicidal effect by foliage application, Wagner pot (Table 18, symbol E); type: in vivo, rice flat sedge (Cyperus iria); details: 320 g/ha
How it was run: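 Plants were sown in alluvial soil held under 0.1–0.5 cm standing water and grown 14 days in a greenhouse at 25–30 °C. An emulsifiable formulation, water-diluted to the set dose, was then sprayed onto the foliage, and effects were scored three weeks later using previously defined criteria.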

[5] = test system: green foxtail; experiment: Test Example 4: herbicidal effect by soil treatment (Table 19, symbol G); type: in vivo, green foxtail (Setaria viridis); details: 320 g/ha
How it was run: (§2)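 Pre-emergence style soil spray: seeds under ~1.5 cm sterilized diluvial soil received a uniform coat of emulsion diluted to the predetermined herbicide amount. Greenhouse 25–30° C; readout at week three on previously defined criteria.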

[6] = test system: barnyard grass; experiment: Test Example 4: herbicidal effect by soil treatment (Table 19, symbol H); type: in vivo, barnyard grass (Echinochloa crus-galli); details: 320 g/ha
How it was run: as §2

[7] = test system: wild oat; experiment: Test Example 4: herbicidal effect by soil treatment (Table 19, symbol I); type: in vivo, wild oat (Avena fatua); details: 320 g/ha
How it was run: as §2

[8] = test system: redroot pigweed; experiment: Test Example 4: herbicidal effect by soil treatment (Table 19, symbol N); type: in vivo, redroot pigweed (Amaranthus retroflexus); details: 320 g/ha
How it was run: as §2

[9] = test system: chickweed; experiment: Test Example 4: herbicidal effect by soil treatment (Table 19, symbol P); type: in vivo, common chickweed (Stellaria media); details: 320 g/ha
How it was run: as §2

[10] = test system: green foxtail; experiment: Test Example 5: herbicidal effect by foliage application, plastic box (Table 20, symbol G); type: in vivo, green foxtail (Setaria viridis); details: foliage application, 320 g/ha, evaluated three weeks after application
How it was run: (§3)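 Plants were sown into sterilized diluvial soil under about 1.5 cm cover and kept in a greenhouse at 25° C. to 30° C. Fourteen days on, foliage received an even spray of the diluted emulsion. Herbicidal or crop effect was judged three weeks afterwards.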

[11] = test system: barnyard grass; experiment: Test Example 5: herbicidal effect by foliage application, plastic box (Table 20, symbol H); type: in vivo, barnyard grass (Echinochloa crus-galli); details: foliage application, 320 g/ha, evaluated three weeks after application
How it was run: as §3

[12] = test system: wild oat; experiment: Test Example 5: herbicidal effect by foliage application, plastic box (Table 20, symbol I); type: in vivo, wild oat (Avena fatua); details: foliage application, 320 g/ha, evaluated three weeks after application
How it was run: as §3

[13] = test system: blackgrass; experiment: Test Example 5: herbicidal effect by foliage application, plastic box (Table 20, symbol J); type: in vivo, blackgrass (Alopecurus myosuroides); details: foliage application, 320 g/ha, evaluated three weeks after application
How it was run: as §3

[14] = test system: velvetleaf; experiment: Test Example 5: herbicidal effect by foliage application, plastic box (Table 20, symbol M); type: in vivo, velvetleaf (Abutilon theophrasti); details: foliage application, 320 g/ha, evaluated three weeks after application
How it was run: as §3

[15] = test system: redroot pigweed; experiment: Test Example 5: herbicidal effect by foliage application, plastic box (Table 20, symbol N); type: in vivo, redroot pigweed (Amaranthus retroflexus); details: foliage application, 320 g/ha, evaluated three weeks after application
How it was run: as §3

[16] = test system: chickweed; experiment: Test Example 5: herbicidal effect by foliage application, plastic box (Table 20, symbol P); type: in vivo, common chickweed (Stellaria media); details: foliage application, 320 g/ha, evaluated three weeks after application
How it was run: as §3

| SMILES | Herbicidal effect on B: Japanese bulrush (grade 0-5) [1] | Herbicidal effect on C: oval-leafed pondweed (grade 0-5) [2] | herbicidal effect rating, C: oval-leafed pondweed [3] | herbicidal effect on E (rice flat sedge), rating 0-5 [4] | herbicidal effect rating, G: green foxtail [5] | herbicidal effect rating, H: barnyard grass [6] | herbicidal effect rating, I: wild oat [7] | herbicidal effect rating, N: redroot pigweed [8] | herbicidal effect rating, P: chickweed [9] | herbicidal effect on G: green foxtail [10] | herbicidal effect on H: barnyard grass [11] | herbicidal effect on I: wild oat [12] | herbicidal effect on J: blackgrass [13] | herbicidal effect on M: velvetleaf [14] | herbicidal effect on N: redroot pigweed [15] | herbicidal effect on P: chickweed [16] |
| --- | --- | --- | --- | --- | --- | --- | --- | --- | --- | --- | --- | --- | --- | --- | --- | --- |
| CCCC(=O)Oc1c(C)nn(C)c(=O)c1-c1c(-c2ccc3c(c2)OCO3)sc2ccc(F)cc12 [2-091] | 4 (Herbicidal rate of 70% or more and less than 90%) | 5 (Herbicidal rate of 90% or more (almost completely withered)) | 4 (Herbicidal rate of 70% or more and less than 90%) | 5 (Herbicidal rate of 90% or more (almost completely withered)) | 3 (Herbicidal rate of 40% or more and less than 70%) | 2 (Herbicidal rate of 20% or more and less than 40%) | 0 (Herbicidal rate of 5% or less (almost no effect)) | 5 (Herbicidal rate of 90% or more (almost completely withered)) | 1 (Herbicidal rate of 5% or more and less than 20%) | 1 (Herbicidal rate of 5% or more and less than 20%) | 3 (Herbicidal rate of 40% or more and less than 70%) | 0 (Herbicidal rate of 5% or less (almost no effect)) | 3 (Herbicidal rate of 40% or more and less than 70%) | 5 (Herbicidal rate of 90% or more (almost completely withered)) | 3 (Herbicidal rate of 40% or more and less than 70%) | 5 (Herbicidal rate of 90% or more (almost completely withered)) |
| CCCC(=O)Oc1c(C)nn(C)c(=O)c1-c1c(-c2ccc(OC)c(F)c2)sc2ccc(F)cc12 [2-087] | 4 (Herbicidal rate of 70% or more and less than 90%) | 4 (Herbicidal rate of 70% or more and less than 90%) | 0 (Herbicidal rate of 5% or less (almost no effect)) | 5 (Herbicidal rate of 90% or more (almost completely withered)) | 0 (Herbicidal rate of 5% or less (almost no effect)) | 0 (Herbicidal rate of 5% or less (almost no effect)) | 0 (Herbicidal rate of 5% or less (almost no effect)) | 3 (Herbicidal rate of 40% or more and less than 70%) | 3 (Herbicidal rate of 40% or more and less than 70%) | 0 (Herbicidal rate of 5% or less (almost no effect)) | 0 (Herbicidal rate of 5% or less (almost no effect)) | 0 (Herbicidal rate of 5% or less (almost no effect)) | 0 (Herbicidal rate of 5% or less (almost no effect)) | 5 (Herbicidal rate of 90% or more (almost completely withered)) | 4 (Herbicidal rate of 70% or more and less than 90%) | 5 (Herbicidal rate of 90% or more (almost completely withered)) |
